From US9783527B2, “Indazole ureas and method of use” (AbbVie Inc., priority 2014, dated 2017)

The molecules below were run against human Nav1.7 (Homo sapiens (Human), UniProt Q15858) (assay: FRET-based membrane potential assay, recombinant human sodium channel Nav1.7). Details: HEK293 cells stably expressing recombinant human Nav1.7; depolarization with veratridine (EC80) + scorpion venom.
Type: cell-based
In short: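 IC50 derived by four-parameter Hill fit of percent inhibition of depolarization, measured as peak F440-480/F565-625 ratio over baseline. Stable human Nav1.7 HEK293 cells, dye-loaded with CC2-DMPE and DiSBAC2(3)/VABSC-1 at room temperature, received compound 3 min ahead of veratridine (EC80) plus scorpion venom.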

Chain of human Nav1.7 (Q15858 whole entry): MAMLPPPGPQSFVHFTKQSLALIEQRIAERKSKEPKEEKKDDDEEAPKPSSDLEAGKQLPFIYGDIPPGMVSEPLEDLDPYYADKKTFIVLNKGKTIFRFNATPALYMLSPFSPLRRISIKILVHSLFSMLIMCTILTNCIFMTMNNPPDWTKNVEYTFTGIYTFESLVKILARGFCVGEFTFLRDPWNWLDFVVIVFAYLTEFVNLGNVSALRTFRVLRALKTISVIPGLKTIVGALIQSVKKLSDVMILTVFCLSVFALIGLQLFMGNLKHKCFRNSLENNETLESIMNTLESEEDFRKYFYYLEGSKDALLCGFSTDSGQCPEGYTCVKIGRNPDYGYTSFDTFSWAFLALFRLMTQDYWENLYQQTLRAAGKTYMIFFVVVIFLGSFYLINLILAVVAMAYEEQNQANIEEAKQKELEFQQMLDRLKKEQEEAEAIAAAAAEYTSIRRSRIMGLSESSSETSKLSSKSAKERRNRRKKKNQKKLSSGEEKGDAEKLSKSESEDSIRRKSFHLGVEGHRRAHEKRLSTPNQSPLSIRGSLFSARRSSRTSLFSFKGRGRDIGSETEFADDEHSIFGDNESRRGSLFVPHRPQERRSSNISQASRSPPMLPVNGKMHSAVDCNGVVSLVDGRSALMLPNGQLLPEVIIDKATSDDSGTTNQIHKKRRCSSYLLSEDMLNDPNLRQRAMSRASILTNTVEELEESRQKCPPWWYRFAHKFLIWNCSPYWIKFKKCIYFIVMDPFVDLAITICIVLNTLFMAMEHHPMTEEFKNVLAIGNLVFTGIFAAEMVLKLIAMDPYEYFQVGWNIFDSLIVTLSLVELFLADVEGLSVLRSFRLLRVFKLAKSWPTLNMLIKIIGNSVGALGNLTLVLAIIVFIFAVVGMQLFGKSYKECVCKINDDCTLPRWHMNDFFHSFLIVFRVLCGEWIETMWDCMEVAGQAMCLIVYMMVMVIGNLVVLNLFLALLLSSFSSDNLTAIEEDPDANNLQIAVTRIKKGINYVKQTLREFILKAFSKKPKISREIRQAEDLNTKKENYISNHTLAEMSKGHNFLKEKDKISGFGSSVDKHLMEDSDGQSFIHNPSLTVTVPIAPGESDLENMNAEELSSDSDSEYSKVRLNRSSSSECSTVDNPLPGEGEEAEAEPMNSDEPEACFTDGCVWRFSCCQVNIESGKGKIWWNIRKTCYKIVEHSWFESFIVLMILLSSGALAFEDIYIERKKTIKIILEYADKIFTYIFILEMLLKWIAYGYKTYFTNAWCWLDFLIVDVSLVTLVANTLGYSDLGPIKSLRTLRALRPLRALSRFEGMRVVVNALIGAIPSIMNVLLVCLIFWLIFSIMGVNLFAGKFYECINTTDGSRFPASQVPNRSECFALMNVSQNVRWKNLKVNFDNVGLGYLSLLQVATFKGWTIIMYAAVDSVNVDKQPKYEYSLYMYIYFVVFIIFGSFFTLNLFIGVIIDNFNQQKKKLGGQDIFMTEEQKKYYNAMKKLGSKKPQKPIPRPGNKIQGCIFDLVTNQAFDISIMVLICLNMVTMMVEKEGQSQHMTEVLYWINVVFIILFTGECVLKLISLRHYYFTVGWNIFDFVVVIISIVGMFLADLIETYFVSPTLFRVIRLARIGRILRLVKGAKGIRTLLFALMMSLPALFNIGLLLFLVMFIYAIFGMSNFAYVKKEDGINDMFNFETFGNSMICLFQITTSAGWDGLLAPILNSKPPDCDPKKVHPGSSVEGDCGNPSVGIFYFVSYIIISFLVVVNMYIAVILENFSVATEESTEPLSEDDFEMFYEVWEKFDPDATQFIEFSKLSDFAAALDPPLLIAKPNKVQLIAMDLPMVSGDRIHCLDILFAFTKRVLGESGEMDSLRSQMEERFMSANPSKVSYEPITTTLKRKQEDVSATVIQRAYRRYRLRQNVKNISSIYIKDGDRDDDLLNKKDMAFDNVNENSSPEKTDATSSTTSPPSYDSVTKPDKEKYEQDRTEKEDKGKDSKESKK

| Compound | IC50 |
| --- | --- |
| Cc1cnc(CN2CCN(c3cccc4c3cnn4-c3ccccc3F)C2=O)nc1 [Example 219, 1-[1-(2-fluorophenyl)-1H-indazol-4-yl]-3-[(5-methylpyrimidin-2-yl)methyl]imidazolidin-2-one] | 5210 nM |
| O=C1N(CCc2cccnc2)CCN1c1cccc2c1cnn2-c1ccccc1F [Example 220, 1-[1-(2-fluorophenyl)-1H-indazol-4-yl]-3-[2-(pyridin-3-yl)ethyl]imidazolidin-2-one] | 1840 nM |
| O=C1N(c2nccs2)CCN1c1cccc2c1cnn2-c1ccccc1F [Example 221, 1-[1-(2-fluorophenyl)-1H-indazol-4-yl]-3-(1,3-thiazol-2-yl)imidazolidin-2-one] | 9500 nM |
| O=C1N(Cc2ccncn2)CCN1c1cccc2c1cnn2-c1ccccc1F [Example 222, 1-[1-(2-fluorophenyl)-1H-indazol-4-yl]-3-(pyrimidin-4-ylmethyl)imidazolidin-2-one] | 11200 nM |
| O=C1N(CC2CCO2)CCN1c1cccc2c1cnn2-c1ccccc1F (centres unmarked) [Example 223, 1-[1-(2-fluorophenyl)-1H-indazol-4-yl]-3-(oxetan-2-ylmethyl)imidazolidin-2-one] | 11200 nM |
| O=C1N(c2cccc3c2cnn3-c2ccccc2F)CCN1[C@H]1CCOC1 [Example 224, 1-[1-(2-fluorophenyl)-1H-indazol-4-yl]-3-[(3S)-tetrahydrofuran-3-yl]imidazolidin-2-one] | 3600 nM |
| O=C1N(Cc2cocn2)CCCN1c1cccc2c1cnn2-c1ccccc1F [Example 225, 1-[1-(2-fluorophenyl)-1H-indazol-4-yl]-3-(1,3-oxazol-4-ylmethyl)tetrahydropyrimidin-2(1H)-one] | 14000 nM |
| O=C1N(c2cnccn2)CCN1c1cccc2c1cnn2-c1ccccc1F [Example 226, 1-[1-(2-fluorophenyl)-1H-indazol-4-yl]-3-(pyrazin-2-yl)imidazolidin-2-one] | 3370 nM |
| Cc1nc(CN2CCN(c3cccc4c3cnn4-c3ccccc3F)C2=O)c(C)o1 [Example 227, 1-[(2,5-dimethyl-1,3-oxazol-4-yl)methyl]-3-[1-(2-fluorophenyl)-1H-indazol-4-yl]imidazolidin-2-one] | 871 nM |
| Cc1cncc(CN2CCN(c3cccc4c3cnn4-c3ccccc3F)C2=O)c1 [Example 228, 1-[1-(2-fluorophenyl)-1H-indazol-4-yl]-3-[(5-methylpyridin-3-yl)methyl]imidazolidin-2-one] | 1090 nM |
| O=C1N(CC2(OCc3ccccc3)CC2)CCN1c1cccc2c1cnn2-c1ccccc1F [Example 229, 1-{[1-(benzyloxy)cyclopropyl]methyl}-3-[1-(2-fluorophenyl)-1H-indazol-4-yl]imidazolidin-2-one] | 9080 nM |
| COc1cncc(N2CCN(c3cccc4c3cnn4-c3ccccc3F)C2=O)c1 [Example 230, 1-[1-(2-fluorophenyl)-1H-indazol-4-yl]-3-(5-methoxypyridin-3-yl)imidazolidin-2-one] | 3730 nM |
| O=C1N(Cc2cnco2)CCN1c1cccc2c1cnn2-c1ccccc1F [Example 231, 1-[1-(2-fluorophenyl)-1H-indazol-4-yl]-3-(1,3-oxazol-5-ylmethyl)imidazolidin-2-one] | 3650 nM |
| O=C1C(N2CCN(c3cccc4c3cnn4-c3ccccc3F)C2=O)CCN1Cc1ccccc1 (centres unmarked) [Example 232, 1-(1-benzyl-2-oxopyrrolidin-3-yl)-3-[1-(2-fluorophenyl)-1H-indazol-4-yl]imidazolidin-2-one] | 1150 nM |
| CC(C)(C)c1cnc(CN2CCN(c3cccc4c3cnn4-c3ccccc3F)C2=O)o1 [Example 233, 1-[(5-tert-butyl-1,3-oxazol-2-yl)methyl]-3-[1-(2-fluorophenyl)-1H-indazol-4-yl]imidazolidin-2-one] | 1020 nM |
| Cc1nnc(CN2CCN(c3cccc4c3cnn4-c3ccc(F)cc3F)C2=O)s1 [Example 234, 1-[1-(2,4-difluorophenyl)-1H-indazol-4-yl]-3-[(5-methyl-1,3,4-thiadiazol-2-yl)methyl]imidazolidin-2-one] | 2900 nM |
| O=C1N(Cc2ncco2)CCN1c1cccc2c1cnn2-c1ccc(C(F)(F)F)cc1 [Example 235, 1-(1,3-oxazol-2-ylmethyl)-3-{1-[4-(trifluoromethyl)phenyl]-1H-indazol-4-yl}imidazolidin-2-one] | 1130 nM |
| Cc1noc(C)c1N1CCN(c2cccc3c2cnn3-c2ccccc2F)C1=O [Example 236, 1-(3,5-dimethyl-1,2-oxazol-4-yl)-3-[1-(2-fluorophenyl)-1H-indazol-4-yl]imidazolidin-2-one] | 924 nM |
| CC(C)c1cnc(CN2CCN(c3cccc4c3cnn4-c3ccccc3F)C2=O)o1 [Example 237, 1-[1-(2-fluorophenyl)-1H-indazol-4-yl]-3-[(5-isopropyl-1,3-oxazol-2-yl)methyl]imidazolidin-2-one] | 667 nM |
| Cc1nc(CN2CCN(c3cccc4c3cnn4-c3ccccc3F)C2=O)oc1C [Example 238, 1-[(4,5-dimethyl-1,3-oxazol-2-yl)methyl]-3-[1-(2-fluorophenyl)-1H-indazol-4-yl]imidazolidin-2-one] | 586 nM |
| Cc1nc(CN2CCN(c3cccc4c3cnn4-c3ccccc3F)C2=O)c(C)s1 [Example 239, 1-[(2,5-dimethyl-1,3-thiazol-4-yl)methyl]-3-[1-(2-fluorophenyl)-1H-indazol-4-yl]imidazolidin-2-one] | 352 nM |
| Cc1nnc(CN2CCN(c3cccc4c3cnn4-c3ccc(C(F)(F)F)cc3)C2=O)s1 [Example 240, 1-[(5-methyl-1,3,4-thiadiazol-2-yl)methyl]-3-{1-[4-(trifluoromethyl)phenyl]-1H-indazol-4-yl}imidazolidin-2-one] | 13400 nM |
| C[C@@H]1CN(c2cccc3c2cnn3-c2ccccc2F)C(=O)N1C(=O)OC(C)(C)C [Example 241, tert-butyl (5R)-3-[1-(2-fluorophenyl)-1H-indazol-4-yl]-5-methyl-2-oxoimidazolidine-1-carboxylate] | 2350 nM |
| O=C1N(Cc2cocn2)CCN1c1cccc2c1cnn2-c1ccc(C(F)(F)F)cc1 [Example 242, 1-(1,3-oxazol-4-ylmethyl)-3-{1-[4-(trifluoromethyl)phenyl]-1H-indazol-4-yl}imidazolidin-2-one] | 3330 nM |
| Cc1nc(CN2CCN(c3cccc4c3cnn4-c3ccc(F)cc3F)C2=O)cs1 [Example 243, 1-[1-(2,4-difluorophenyl)-1H-indazol-4-yl]-3-[(2-methyl-1,3-thiazol-4-yl)methyl]imidazolidin-2-one] | 1610 nM |
| Cc1cc(CN2CCN(c3cccc4c3cnn4-c3ccccc3F)C2=O)on1 [Example 244, 1-[1-(2-fluorophenyl)-1H-indazol-4-yl]-3-[(3-methyl-1,2-oxazol-5-yl)methyl]imidazolidin-2-one] | 3080 nM |
| Cc1scnc1CN1CCN(c2cccc3c2cnn3-c2ccccc2F)C1=O [Example 245, 1-[1-(2-fluorophenyl)-1H-indazol-4-yl]-3-[(5-methyl-1,3-thiazol-4-yl)methyl]imidazolidin-2-one] | 207 nM |
| C[C@@H]1CN(c2cccc3c2cnn3-c2ccccc2F)C(=O)N1 [Example 246, (4R)-1-[1-(2-fluorophenyl)-1H-indazol-4-yl]-4-methylimidazolidin-2-one] | 2980 nM |
| C[C@@H]1CN(c2cccc3c2cnn3-c2ccccc2F)C(=O)N1Cc1ncco1 [Example 247, (4R)-1-[1-(2-fluorophenyl)-1H-indazol-4-yl]-4-methyl-3-(1,3-oxazol-2-ylmethyl)imidazolidin-2-one] | 981 nM |
